Ends that are not written are not given here. Peptide text beside a SMILES is read from it.
Key:
[1] = system: Antibodies to HIV-1; assay: ELISA with peptide or peptide mixture as antigen, identifying HIV-1 positive sera; type: binding, human; settings: Table 3
Description: According to this test a peptide or a peptide mixture of the present invention is adsorbed onto the wells of a microtiter plate. The wells are then treated with sera to be tested. After washing, anti-human IgG labeled with peroxidase is added to the wells. The determination of the peroxidase is performed with a corresponding substrate, e.g. with o-phenylene diamine. Also in this procedure the peroxidase can be exchanged by another label, e.g. by a radioactive or fluorescence label.
(§1) Each well of the microtiter plate is saturated with 100 μl of a solution containing a peptide or mixture of peptides (5 μg/ml) and left overnight. The wells are emptied and washed twice with a washing buffer (Tris, 0.043M; NaCl, 0.5M; thimerosal, 0.01% w/v; Tween 20, 0.05% v/v; pH7.4). The wells are then saturated with 0.35 ml of washing buffer for 1 hr. at 37° C. and washed once with the same buffer. Serum samples to be analyzed are diluted with specimen buffer (washing buffer plus casein, 0.05% w/v). The wells are rinsed with washing buffer prior to the addition of the diluted serum sample (0.1 ml). These are left to incubate for 1 hr. at room temperature. The wells are then emptied, washed twice rapidly and then once for two minutes with washing buffer. […] The wells are then emptied and washed twice rapidly with washing buffer and then five times in which the buffer was in contact with the well 2 minutes per washing. The substrate solution (3,3', 5,5'-tetramethylbenzidine, 8 mg per ml of DMSO) is diluted with 100 volumes 0.1M citrate-acetate buffer, pH 5.6 containing 0.1% v/v of 30% H2 O2 and added to each well (0.1 ml per well). After 10 minutes the contents of each well is treated with 0.1 ml 2N H2 SO4 and the optical density read at 450 nm. All determinations are done in duplicate.

[2] = system: Antibodies to HIV-1; assay: ELISA, relative performance of cyclic and non-cyclic HIV-1 peptides at serum dilutions (optical density); type: binding, human
Description: Table 4 is provided to illustrate the sensitivity of cyclic versus non cyclic peptides in the ELISA test by comparing the results of some sera at various dilutions.
as §1

[3] = single peptide, known HIV-1 positive sera
[4] = serum specimen 87V103, dilution 1/50
[5] = serum specimen 1428, dilution 1/50
[6] = serum specimen M-5, dilution 1/50
[7] = serum specimen M-5, dilution 1/100
[8] = serum specimen M-5, dilution 1/200
[9] = serum specimen M-5, dilution 1/800
[10] = serum specimen M-7, dilution 1/50
[11] = serum specimen M-7, dilution 1/100
[12] = serum specimen M-7, dilution 1/200
[13] = serum specimen M-7, dilution 1/400
[14] = serum specimen M-7, dilution 1/800
[15] = serum specimen M-8, dilution 1/50
[16] = serum specimen M-8, dilution 1/100
[17] = serum specimen M-8, dilution 1/200
[18] = serum specimen M-8, dilution 1/400
[19] = serum specimen M-8, dilution 1/800
[20] = serum specimen M-16, dilution 1/50
[21] = serum specimen M-16, dilution 1/100
[22] = serum specimen M-16, dilution 1/200
[23] = serum specimen M-16, dilution 1/400
[24] = serum specimen M-16, dilution 1/800
[25] = single p 24 peptide, Free, HIV-1 positive sera
[26] = single p 24 peptide, coupled, HIV-1 positive sera

CC[C@H](C)[C@@H]1NC(=O)[C@H](CC(C)C)NC(=O)[C@H](CCCCN)NC(=O)CNC(=O)[C@H](CO)NC(=O)[C@@H](NC(=O)CN)CSSC[C@@H](C(=O)N[C@H](C(=O)N[C@H](C(=O)N[C@@H](C)C(=O)N[C@H](C(=O)N2CCC[C@H]2C(=O)N[C@@H](Cc2c[nH]c3ccccc23)C(=O)N[C@@H](CC(N)=O)C(=O)N[C@@H](C)C(=O)N[C@@H](CO)C(=O)O)C(C)C)[C@@H](C)O)[C@@H](C)O)NC1=O [Peptide 80] (HELM PEPTIDE1{G.C.S.G.K.L.I.C.T.T.A.V.P.W.N.A.S}$PEPTIDE1,PEPTIDE1,2:R3-8:R3$$$V2.0)
% Positive Sera Correctly Identified [1, 3]: 100%
ELISA optical density [2, 4]: 0.003 OPTICAL DENSITY UNITS
ELISA optical density [2, 5]: 1.047 OPTICAL DENSITY UNITS
ELISA optical density [2, 6]: 2.104 OPTICAL DENSITY UNITS
ELISA optical density [2, 7]: 1.881 OPTICAL DENSITY UNITS
ELISA optical density [2, 8]: 1.599 OPTICAL DENSITY UNITS
ELISA optical density [2, 9]: 0.767 OPTICAL DENSITY UNITS
ELISA optical density [2, 10]: 0.191 OPTICAL DENSITY UNITS
ELISA optical density [2, 11]: 0.067 OPTICAL DENSITY UNITS
ELISA optical density [2, 12]: 0.019 OPTICAL DENSITY UNITS
ELISA optical density [2, 13]: 0.010 OPTICAL DENSITY UNITS
ELISA optical density [2, 14]: 0.005 OPTICAL DENSITY UNITS
ELISA optical density [2, 15]: 1.026 OPTICAL DENSITY UNITS
ELISA optical density [2, 16]: 0.737 OPTICAL DENSITY UNITS
ELISA optical density [2, 17]: 0.520 OPTICAL DENSITY UNITS
ELISA optical density [2, 18]: 0.340 OPTICAL DENSITY UNITS
ELISA optical density [2, 19]: 0.159 OPTICAL DENSITY UNITS
ELISA optical density [2, 20]: 1.601 OPTICAL DENSITY UNITS
ELISA optical density [2, 21]: 1.300 OPTICAL DENSITY UNITS
ELISA optical density [2, 22]: 0.903 OPTICAL DENSITY UNITS
ELISA optical density [2, 23]: 0.583 OPTICAL DENSITY UNITS
ELISA optical density [2, 24]: 0.329 OPTICAL DENSITY UNITS

CC[C@H](C)[C@H](NC(=O)CNC(=O)[C@H](CC(C)C)NC(=O)[C@H](CC(C)C)NC(=O)[C@H](CCC(N)=O)NC(=O)[C@H](CCC(N)=O)NC(=O)[C@H](CC(=O)O)NC(=O)[C@H](CCCCN)NC(=O)[C@H](CC(C)C)NC(=O)[C@H](Cc1ccc(O)cc1)NC(=O)[C@H](CCCNC(=N)N)NC(=O)[C@H](CCC(=O)O)NC(=O)[C@@H](NC(=O)[C@H](C)NC(=O)[C@H](CC(C)C)NC(=O)[C@@H](NC(=O)[C@@H](N)CCCNC(=N)N)[C@@H](C)CC)C(C)C)C(=O)N[C@@H](Cc1c[nH]c2ccccc12)C(=O)NCC(=O)N[C@H]1CSSC[C@@H](C(=O)N[C@H](C(=O)N[C@H](C(=O)N[C@@H](C)C(=O)N[C@H](C(=O)N2CCC[C@H]2C(=O)N[C@@H](Cc2c[nH]c3ccccc23)C(=O)N[C@@H](CC(N)=O)C(=O)N[C@@H](C)C(=O)N[C@@H](CO)C(=O)O)C(C)C)[C@@H](C)O)[C@@H](C)O)NC(=O)[C@H]([C@@H](C)CC)NC(=O)[C@H](CC(C)C)NC(=O)[C@H](CCCCN)NC(=O)CNC(=O)[C@H](CO)NC1=O [Peptide 87c] (HELM PEPTIDE1{R.I.L.A.V.E.R.Y.L.K.D.Q.Q.L.L.G.I.W.G.C.S.G.K.L.I.C.T.T.A.V.P.W.N.A.S}$PEPTIDE1,PEPTIDE1,20:R3-26:R3$$$V2.0)
% Positive Sera Correctly Identified [1, 3]: 99%
ELISA optical density [2, 4]: 0.011 OPTICAL DENSITY UNITS
ELISA optical density [2, 5]: > 2.0 OPTICAL DENSITY UNITS
ELISA optical density [2, 6]: > 2.0 OPTICAL DENSITY UNITS
ELISA optical density [2, 7]: > 2.0 OPTICAL DENSITY UNITS
ELISA optical density [2, 8]: > 2.0 OPTICAL DENSITY UNITS
ELISA optical density ([2]; serum specimen M-5, dilution 1/400): > 2.0 OPTICAL DENSITY UNITS
ELISA optical density [2, 9]: 1.854 OPTICAL DENSITY UNITS
ELISA optical density [2, 10]: > 2.0 OPTICAL DENSITY UNITS
ELISA optical density [2, 11]: > 2.0 OPTICAL DENSITY UNITS
ELISA optical density [2, 12]: 1.729 OPTICAL DENSITY UNITS
ELISA optical density [2, 13]: 1.348 OPTICAL DENSITY UNITS
ELISA optical density [2, 14]: 0.611 OPTICAL DENSITY UNITS
ELISA optical density [2, 15]: > 2.0 OPTICAL DENSITY UNITS
ELISA optical density [2, 16]: > 2.0 OPTICAL DENSITY UNITS
ELISA optical density [2, 17]: 1.655 OPTICAL DENSITY UNITS
ELISA optical density [2, 18]: 1.064 OPTICAL DENSITY UNITS
ELISA optical density [2, 19]: 0.384 OPTICAL DENSITY UNITS
ELISA optical density [2, 20]: > 2.0 OPTICAL DENSITY UNITS
ELISA optical density [2, 21]: > 2.0 OPTICAL DENSITY UNITS
ELISA optical density [2, 22]: > 2.0 OPTICAL DENSITY UNITS
ELISA optical density [2, 23]: > 2.0 OPTICAL DENSITY UNITS
ELISA optical density [2, 24]: 1.962 OPTICAL DENSITY UNITS

CC[C@H](C)[C@H](NC(=O)[C@H](CCC(N)=O)NC(=O)[C@H](CCC(=O)O)NC(=O)[C@H](CC(C)C)NC(=O)[C@H](CO)NC(=O)[C@H](CCCCN)NC(=O)[C@H](CC(N)=O)NC(=O)[C@H](CO)NC(=O)[C@H](Cc1c[nH]c2ccccc12)NC(=O)[C@H](CO)NC(=O)[C@H](C)NC(=O)[C@H](CC(N)=O)NC(=O)[C@H](Cc1c[nH]c2ccccc12)NC(=O)[C@@H]1CCCN1C(=O)[C@@H](NC(=O)[C@H](C)NC(=O)[C@@H](NC(=O)[C@@H](NC(=O)[C@@H]1CSSC[C@H](NC(=O)CN)C(=O)N[C@@H](CO)C(=O)NCC(=O)N[C@@H](CCCCN)C(=O)N[C@@H](CC(C)C)C(=O)N[C@@H]([C@@H](C)CC)C(=O)N1)[C@@H](C)O)[C@@H](C)O)C(C)C)C(=O)O [Peptide 96] (HELM PEPTIDE1{G.C.S.G.K.L.I.C.T.T.A.V.P.W.N.A.S.W.S.N.K.S.L.E.Q.I}$PEPTIDE1,PEPTIDE1,2:R3-8:R3$$$V2.0)
% Positive Sera Correctly Identified [1, 3]: 100%

CGKIEPLGVAPTKAKRRVVQREKR [Peptide 71]
% Positive Sera Correctly Identified [1, 3]: 83%

CGNNPPIPVGE [Peptide 41, NH2 -CGNNPPIPVGE-COOH]
% Positive Sera Correctly Identified [1, 25]: 63%
% Positive Sera Correctly Identified [1, 26]: 73%

CGRAEQASQEVKN [Peptide 46, NH2 -CGRAEQASQEVKN-COOH]
% Positive Sera Correctly Identified [1, 25]: 0%
% Positive Sera Correctly Identified [1, 26]: 93%

GHACVPTDPNPQEVVL [Peptide 14]
% Positive Sera Correctly Identified [1, 3]: 50%

NH2 -CGLGIWGCSGKLICTTAVPWNASWSNKSLEQI-COOH [Peptide 98]
% Positive Sera Correctly Identified [1, 3]: 100%
